Data as given in patent publication US5112811A, “SDK peptides and therapeutic compositions containing them” (Societe de Conseils de Recherches et d'Applications …, priority 1989, dated 1992).
Residues, ends and D or L forms follow the SMILES beside them.

How the values were obtained:
[1] = test system: Human peripheral mononuclear cells (MNC) stimulated by 0.1% PHA; assay: Stimulation of T lymphocytes proliferation ([3H]thymidine DNA synthesis in PHA-stimulated MNC); assay type: cell-based; conditions: for DNA synthesis induced in MNC stimulated by 0.1% PHA: PBL with 0.1% PHA, 3 days; for % stimulation of DNA synthesis in MNC stimulated by 0.1% PHA: versus control (RPMI 1640)
Experimental: Dilute blood at 1/2 in PBS.
On 15 ml of Ficoll-Hypaque, put 35 ml of dilute blood.
Centrifuge 30 minutes at 1800 rpm, at room temperature.
Take the ring corresponding to mononuclear cells (MNC) back with Pasteur pipette.
Wash twice in PBS (centrifuge for 10 minutes at 1800 rpm).
Bring to 2.10^6 cells/ml with RPMI 1640 "complete" medium +10 % SVF.
PHA-M : Reconstitute a 5 ml bottle lyophylized with 5 ml of "complete" medium. Solution of 100 %. Dilute to obtain a 0.4 % solution.
SDK : Tube […] +4.35 ml "complete" medium. Solution 2.3 10^-4 M.
Then dilute successively 450 μl "medium" +50 μl of dilution.
In 96-well sterilized boxes NUNC :
50 μl of PHA 0.4 % (0.1 % final)
Incubate for 3 days at 37° C. in air/CO* atmosphere 95/5. During the last 24 hours, make a puls of [^3 H] Thymidine : 1 μci/well. Pick up the wells on filters and count with a counter.

[2] = test system: B lymphocytes which secrete IgM immunoglobulines; assay: Humoral response in mice to sheep red blood cells (hemolysis plaque technique, Jerne method); assay type: in vivo, mice of B6D2F1 strain; conditions: 3 μg/kg IP; for Number of P.F.C./10^6 cells: read on day +4; for % stimulation of humoral response: versus saline
Experimental: 6-to-8 week old mice of B6D2F1 strain are sensitized, on day 0, with 0.2 ml of a sheep red blood cells suspension [10^8 cells ] in a saline solution of Hanks.
The Ser-Asp-Lys and the Pro-Ser-Asp-Lys-Pro peptides (3 μg/kg) were injected in solution physiological serum, by IP route, in 0.2 ml, at the appointed time.
On day +4, animals are killed and the number of B lymphocytes which secrete IgM immunoglobulines are counted by the hemolysis plaque technique (Jerne method).
8 mice / batch. 4 determinations / animal made test : 2 experiments / point.

Jurkat T cells = assay: Rosettes protocol: rosette formation between Jurkat T cells and sheep red blood cells; assay type: cell-based
Experimental: Wash three times the red blood cells (RBC) in RPMI 1640 or RBS or Hanks +antibiotic drugs. Centrifuge for 7 minutes at 3000 rpm.
Put the cells sap in suspension. Count. Bring to 2.10^8 RBC/ml in a solution of RPMI at 20 % of Foetal Calf Serum (FCS) (4 ml formerly adsorbed on 1 ml of RBC sap, 30 minutes on an ice-bath, then centrifuge for 7 minutes at 3000 rpm and recover in sterile conditions).
Take an aliquot of Jurkat T cells in culture. Make a viability with Trypan blue.
Then take the volume of cells required for practical work. Wash the cells three times in RPMI 1640 or PBS or Hanks +antibiotic drugs. Centrifuge for 7 minutes at 900 rpm.
Put the cells sap in suspension. Count. Bring to 2.10^6 Jurkat T cells/ml of solution of RPMI at 20 % of adsorbed FCS.
Inhibiting solution =SDK (2.10^-7 mole).
Peptides to be evaluated are dissolved in RPMI 1640 at the appropriate concentration.
Place, in the tube, 200 μl of the inhibiting solution +100 μl of Jurkat T cells […] in RMPI +FCS 20 %; leave 10 minutes on an ice-bath. Add […] in RPMI +FCS 20 %.
Centrifuge for 5 minutes at 500 rpm. Leave overnight at 4° C.
Set the microscope : ocular :×6 objective :×7
Put carefully back in suspension the cells by tapping. Let it rest for a while.
Add, in the tube, 30 μl of Toluidine blue 1 % (to dye the lymphocytes). Tap gently.
Read 3 Malassex hemocytometer per experimental point.

Structure (SMILES)	DNA synthesis induced in MNC stimulated by 0.1% PHA ([1]; peptide 3.10^-5 M)	% stimulation of DNA synthesis in MNC stimulated by 0.1% PHA ([1]; peptide 3.10^-5 M)	Number of P.F.C./10^6 cells ([2]; injection at 0 h)	% stimulation of humoral response ([2]; injection at 0 h)	Number of P.F.C./10^6 cells ([2]; injection at +24 h)	Number of P.F.C./10^6 cells ([2]; injection at +48 h)	% stimulation of humoral response ([2]; injection at +48 h)	Number of P.F.C./10^6 cells ([2]; injection at +72 h)	Number of P.F.C./10^6 cells ([2]; injection at -24 h)	% stimulation of humoral response ([2]; injection at -24 h)	% INHIBITION of rosettes (Jurkat T cells; peptide 10^-4 M)	% ROSETTES (Jurkat T cells; peptide 10^-4 M)	% INHIBITION of rosettes (Jurkat T cells; peptide 10^-5 M)	% ROSETTES (Jurkat T cells; peptide 10^-5 M)	% INHIBITION of rosettes (Jurkat T cells; peptide 10^-6 M)	% ROSETTES (Jurkat T cells; peptide 10^-6 M)	% INHIBITION of rosettes (Jurkat T cells; peptide 10^-7 M)	% ROSETTES (Jurkat T cells; peptide 10^-7 M)	% INHIBITION of rosettes (Jurkat T cells; peptide 10^-8 M)	% ROSETTES (Jurkat T cells; peptide 10^-8 M)	also measured
NCCCC[C@H](NC(=O)[C@H](CC(=O)O)NC(=O)[C@@H](N)CO)C(=O)O [SDK, Ser-Asp-Lys] (H-Ser-Asp-Lys-OH)	56 ± 5 cpm × 10^3 /2.10^5 cells	+60%	903 ± 133 P.F.C./10^6 cells	+97%	459 ± 103 P.F.C./10^6 cells	673 ± 110 P.F.C./10^6 cells	+65%	1073 ± 348 P.F.C./10^6 cells	644 ± 170 P.F.C./10^6 cells	+45%	-40%	38 ± 3%	-28%	45 ± 4%	-22%	50 ± 2%	-22%	49 ± 2%	-36%	40 ± 2%	DNA synthesis induced in MNC stimulated by 0.1% PHA ([1]; peptide 3.10^-10 M): 52 ± 5 cpm × 10^3 /2.10^5 cells; % stimulation of DNA synthesis in MNC stimulated by 0.1% PHA ([1]; peptide 3.10^-10 M): +30%; % stimulation of humoral response ([2]; injection at +72 h): +134%; % INHIBITION of rosettes (Jurkat T cells; peptide 10^-9 M): -32%; % ROSETTES (Jurkat T cells; peptide 10^-9 M): 43 ± 1%; % INHIBITION of rosettes (Jurkat T cells; peptide 10^-10 M): -32%; % ROSETTES (Jurkat T cells; peptide 10^-10 M): 43 ± 3%; % INHIBITION of rosettes (Jurkat T cells; peptide 10^-11 M): -36%; % ROSETTES (Jurkat T cells; peptide 10^-11 M): 40 ± 1%; % INHIBITION of rosettes (Jurkat T cells; peptide 10^-12 M): -30%; % ROSETTES (Jurkat T cells; peptide 10^-12 M): 44 ± 3%; % INHIBITION of rosettes (Jurkat T cells; peptide 10^-13 M): -19%; % ROSETTES (Jurkat T cells; peptide 10^-13 M): 51 ± 7%; % INHIBITION of rosettes (Jurkat T cells; peptide 10^-14 M): -14%; % ROSETTES (Jurkat T cells; peptide 10^-14 M): 55 ± 2%; % ROSETTES (Jurkat T cells; peptide 10^-15 M): 63 ± 4%
NCCCC[C@H](NC(=O)[C@H](CC(=O)O)NC(=O)[C@H](CO)NC(=O)[C@@H]1CCCN1)C(=O)N1CCC[C@H]1C(=O)O [PSDKP, Pro-Ser-Asp-Lys-Pro] (H-PSDKP-OH)	54 ± 4 cpm × 10^3 /2.10^5 cells	+42%	915 ± 140 P.F.C./10^6 cells	+99%	475 ± 82 P.F.C./10^6 cells	589 ± 101 P.F.C./10^6 cells	+45%	543 ± 112 P.F.C./10^6 cells	630 ± 142 P.F.C./10^6 cells	+42%	-37%	37 ± 7%	-44%	33 ± 3%	-54%	27 ± 5%	-24%	45 ± 6%	-19%	48 ± 2%	% INHIBITION of rosettes (Jurkat T cells; peptide 10^-9 M): -19%; % ROSETTES (Jurkat T cells; peptide 10^-9 M): 48 ± 4%; % ROSETTES (Jurkat T cells; peptide 10^-10 M): 52 ± 5%
